Measured values published in patent US20100240654A1, “HYDRAZIDE DERIVATIVES” (priority 2004, published 2010).
Structures can show the parent of a compound that is named as a salt.

Legend:
[1] = biological target: T1, human clotting factor VIIa (Homo sapiens, UniProt P08709); test: Inhibitory activity against clotting factor VIIa (chromogenic substrate Spectrozyme FVIIa, with tissue factor); assay type: biochemical; details: 10 nmol/L TF, 5 nmol/L Factor VIIa, room temperature 40 minutes, 405 nm
T1 construct: a human clotting factor VIIa (Factor VIIa) purified sample; purchased Enzyme Research Laboratories (Factor VIIa); Calbiochem (tissue factor) HFVIIa (Factor VIIa); 612151 (tissue factor)
Description: Dimethylsulfoxide (DMSO) solutions were prepared with compounds of the invention at concentration of 10 mmol/L (10 mmol/L compound solutions).
One packet of tris-hydroxymethylaminomethane-preset (Tris Preset) (product of SIGMA Corp., Catalog No. T8293), 8.8 g of sodium chloride (NaCl) and 1 g of bovine serum albumin (BSA) were dissolved in 1 L of water to prepare a Tris-BSA buffer (100 mmol/L Tris, 0.15 mol/L NaCl, 0.1% BSA, pH 7.4).
The Tris-BSA buffer (180 μL) was added to the aforementioned 10 mmol/L compound solution (20 μL). A 10-fold dilution series was prepared for this mixture using the aforementioned Tris-BSA buffer, and solutions with the compound at concentrations of 1.0 mmol/L, 100, 10, 1, 0.1, 0.01 and 0.001 μmol/L were prepared (1.0 mmol-0.001 μmol/L compound solutions).
As a control, a solution was prepared by 10-fold dilution of DMSO with the Tris-BSA buffer (control 10% solution).
After dissolving one packet of Tris preset, NaCl (8.8 g) and BSA (1 g) in water (about 900 mL), there were added 1 mol/L aqueous calcium chloride (CaCl2) (15 mL) and 1 mg/mL aqueous cephalin (30 mL), and the total volume was brought to 1 L by adding water. To this solution was added a human tissue factor (TF) sample (product of Calbiochem, Catalog No. 612151) (450 μg) to a TF sample concentration of 10 nmol/L, and then a human clotting factor VIIa (Factor VIIa) purified sample (product of Enzyme Research Laboratories, Catalog No. HFVIIa) (250 μg) was added to a Factor VIIa purified sample concentration of 5 nmol/L, to prepare an enzyme solution (100 mmol/L Tris-HCl, 0.15 mol/L NaCl, 15 mmol/L CaCl2, 30 μg/mL cephalin, 1 mg/mL BSA, 10 nmol/L TF, 5 nmol/L Factor VIIa).
To 110 μL of this enzyme solution was added 15 μL of each of the 1.0 mmol-0.001 μmol/L compound solutions, and then 25 μL of a 1.0 mmol/L synthetic chromogenic substrate solution (Spectrozyme FVIIa) was added and the mixture was allowed to stand at room temperature for 40 minutes. Next, the amount of 4-nitroanilide released into the solution was quantitated by spectrophotometry (405 nm).
A control measurement was conducted in the same manner, using the control 10% solution instead of the compound solution.
This measurement yielded the enzyme reaction inhibition in the presence of 100 μmol/L to 0.1 nmol/L of each compound of the invention. The enzyme reaction inhibition at each compound concentration was subjected to non-linear regression analysis, and the IC50 value for inhibitory activity of each compound against clotting factor VIIa was calculated.

healthy human plasma = test: Blood clotting time prolongation (prothrombin time, steel ball method); details: human thromboplastin, 37° C.

T1 sequence (P08709 213-466 limits assumed): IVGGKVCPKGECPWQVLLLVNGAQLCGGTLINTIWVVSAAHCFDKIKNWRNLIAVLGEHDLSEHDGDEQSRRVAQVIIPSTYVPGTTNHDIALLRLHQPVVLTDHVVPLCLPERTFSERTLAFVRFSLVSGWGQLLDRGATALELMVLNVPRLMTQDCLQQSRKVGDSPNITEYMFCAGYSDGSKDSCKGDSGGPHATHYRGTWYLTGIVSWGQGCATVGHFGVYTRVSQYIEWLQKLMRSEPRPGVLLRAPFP
T1 sequence (P08709 61-212 limits assumed): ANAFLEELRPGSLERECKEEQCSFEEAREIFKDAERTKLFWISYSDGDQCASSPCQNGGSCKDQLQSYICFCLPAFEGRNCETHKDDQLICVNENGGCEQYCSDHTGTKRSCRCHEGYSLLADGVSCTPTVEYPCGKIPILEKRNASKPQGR
T1 sequence (P13726 33-295 partner): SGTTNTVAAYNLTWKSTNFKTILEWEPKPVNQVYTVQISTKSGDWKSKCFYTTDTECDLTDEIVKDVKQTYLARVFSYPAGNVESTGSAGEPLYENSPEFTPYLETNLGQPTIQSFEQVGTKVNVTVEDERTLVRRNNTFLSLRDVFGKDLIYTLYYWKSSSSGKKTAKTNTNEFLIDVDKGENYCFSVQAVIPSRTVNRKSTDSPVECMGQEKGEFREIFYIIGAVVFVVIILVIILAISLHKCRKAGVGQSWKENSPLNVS

SMILES	IC50 [1] [nM]	h PT × 1.1: compound concentration which produced 10% prolongation compared to the control clotting time (healthy human plasma) [µM]
CCOc1cc(C(Nc2ccc(C(=N)N)cc2)C(=O)NNC(=O)c2ccccc2Cl)ccc1OCC(C)(C)N (centres unmarked) [Example X-247, 4-[1-[4-(2-Amino-2-methylpropoxy)-3-ethoxyphenyl]-2-[N′-(2-chlorobenzoyl)-hydrazino]-2-oxoethylamino]benzamidine trifluoroacetate]	336	–
CCOc1cc(C(Nc2ccc(C(=N)N)cc2)C(=O)NNS(=O)(=O)c2ccccc2S(C)(=O)=O)ccc1OC(C)C.O=C(O)C(F)(F)F (centres unmarked) [Example 10]	–	1.20
CCOc1cc(C(Nc2ccc(C(=N)N)cc2)C(=O)NNC(=O)c2ccncc2F)ccc1OC(C)CN(C)C.O=C(O)C(F)(F)F (centres unmarked) [Example X-254, 4-(1-(4-(2-Dimethylamino-1-methylethoxy)-3-ethoxyphenyl)-2-(N′-(3-fluoropyridine-4-carbonyl)hydrazino)-2-oxoethylamino)benzamidine trifluoroacetate]	50	0.59
CCOc1cc(C(Nc2ccc(C(=N)N)cc2)C(=O)NNc2ccccc2OC)ccc1OCCN(C)C.O=C(O)C(F)(F)F (centres unmarked) [Example 56, 4-(((4-(2-Dimethylaminoethoxy)-3-ethoxyphenyl)-(N′-(2-methoxyphenyl)hydrazinocarbonyl)methyl)amino)benzamidine trifluoroacetate]	198	0.41
COc1cc(F)c(C(Nc2ccc(C(=N)N)cc2)C(=O)NNC(=O)c2ccccc2Br)cc1OC.O=C(O)C(F)(F)F (centres unmarked) [Example 72, 4-(2-(N’-(2-Bromobenzoyl)hydrazino)-1-(2-fluoro-4,5-dimethoxyphenyl)-2-oxoethylamino)benzamidine trifluoroacetate]	259	1.20
CCOc1cc(C(Nc2ccc(C(=N)N)cc2)C(=O)NNC(=O)c2ccccc2Cl)ccc1OC(C)CN(C)C.O=C(O)C(F)(F)F (centres unmarked) [Example X-252, 4-(2-(N′-(2-Chlorobenzoyl)hydrazino)-1-(4-(2-dimethylamino-1-methylethoxy)-3-ethoxyphenyl)-2-oxoethylamino)benzamidine trifluoroacetate]	98	0.76
CCOc1cc(C(Nc2ccc(C(=N)N)cc2)C(=O)NNC(=O)c2ccncc2F)ccc1OCC(C)(C)N.O=C(O)C(F)(F)F (centres unmarked) [Example X-248, 4-[1-[4-(2-Amino-2-methylpropoxy)-3-ethoxyphenyl]-2-[N′-(3-fluoropyridine-4-carbonyl)-hydrazino]-2-oxoethylamino]benzamidine trifluoroacetate]	173	0.83
COc1cc(F)c(C(Nc2ccc(C(=N)N)cc2)C(=O)NNC(=O)c2ccccc2Cl)cc1OC.O=C(O)C(F)(F)F (centres unmarked) [Example 23, 4-(2-(N′-(2-Chlorobenzoyl)hydrazino)-1-(2-fluoro-4,5-dimethoxyphenyl)-2-oxoethylamino)benzamidine trifluoroacetate]	255	1.20
CCOc1cc(C(Nc2ccc(C(=N)N)cc2)C(=O)NNC(=O)c2ccncc2Cl)ccc1OC(C)C.O=C(O)C(F)(F)F (centres unmarked) [Example 33, 4-(2-(N′-(3-Chloropyridine-4-carbonyl)hydrazino)-1-(3-ethoxy-4-isopropoxyphenyl)-2-oxoethylamino)benzamidine trifluoroacetate]	57	1.10
CCOc1cc(C(Nc2ccc(C(=N)N)cc2)C(=O)NNC(=O)c2ccncc2F)ccc1OCCN(C)C.O=C(O)C(F)(F)F (centres unmarked) [Example 53, 4-(1-(4-(2-Dimethylaminoethoxy)-3-ethoxyphenyl)-2-oxo-2-(N′-(3-fluoropyridine-4-carbonyl)hydrazino)ethylamino)benzamidine trifluoroacetate]	164	0.65
CCOc1cc(C(Nc2ccc(C(=N)N)cc2)C(=O)NNC(=O)c2cnccc2Cl)ccc1OC(C)C.O=C(O)C(F)(F)F (centres unmarked) [Example 25, 4-(2-(N′-(4-Chloropyridine-3-carbonyl)hydrazino)-1-(3-ethoxy-4-isopropoxyphenyl)-2-oxoethylamino)benzamidine trifluoroacetate]	84	1.20
CCOc1cc(C(Nc2ccc(C(=N)N)cc2)C(=O)NNC(=O)c2cnccc2C)ccc1OC(C)C.O=C(O)C(F)(F)F (centres unmarked) [Example 27, 4-(1-(3-Ethoxy-4-isopropoxyphenyl)-2-(N′-(4-methylpyridine-3-carbonyl)hydrazino)-2-oxoethylamino)benzamidine trifluoroacetate]	69	0.74
CCOc1cc(C(Nc2ccc(C(=N)N)cc2)C(=O)NNc2ccccc2C(=O)O)ccc1OC(C)C.O=C(O)C(F)(F)F (centres unmarked) [Example 3, 2-(N′-(2-(4-Carbamimidoylphenylamino)-2-(3-ethoxy-4-isopropoxyphenyl)acetyl)hydrazino)benzoic acid trifluoroacetate]	51	1.00
CCCOc1cc(OC)cc(C(Nc2ccc(C(=N)N)cc2)C(=O)NNC(=O)c2ccncc2)c1F.O=C(O)C(F)(F)F (centres unmarked) [Example 81, 4-{1-(2-Fluoro-5-methoxy-3-propoxyphenyl)-2-oxo-2-[N′-(pyridine-4-carbonyl)hydrazino]ethylamino}benzamidine trifluoroacetate]	78	1.20
CCOc1cc(C(Nc2ccc(C(=N)N)cc2)C(=O)NNc2ccccc2C(=O)O)ccc1OC(C)CN(C)C.O=C(O)C(F)(F)F (centres unmarked) [Example X-251, 2-(N′-(2-(4-Carbamimidoylphenylamino)-2-(4-(2-dimethylamino-1-methylethoxy)-3-ethoxyphenyl)acetyl)hydrazino)benzoic acid trifluoroacetate]	166	0.68
CCOc1cc(C(Nc2ccc(C(=N)N)cc2)C(=O)NNS(=O)(=O)c2ccccc2S(C)(=O)=O)ccc1OC(C)C.O=C(O)C(F)(F)F (centres unmarked) [Example 10, 4-(1-(3-Ethoxy-4-isopropoxyphenyl)-2-(2-(2-methanesulfonyl)phenylsulfonyl)hydrazino)-2-oxoethylamino)benzamidine trifluoroacetate]	233	–
CCOc1cc(C(Nc2ccc(C(=N)N)cc2)C(=O)NNC(=O)c2ccncc2Cl)ccc1OCCOC.O=C(O)C(F)(F)F (centres unmarked) [Example 78, 4-(2-(N′-(3-Chloropyridine-4-carbonyl)hydrazino)-1-(3-ethoxy-4-(2-methoxyethoxy)phenyl)-2-oxoethylamino)benzamidine trifluoroacetate]	49	0.42
CCOc1cc(C(Nc2ccc(C(=N)N)cc2)C(=O)NNC(=O)c2ccncc2F)ccc1OCC(=O)N(C)C.O=C(O)C(F)(F)F (centres unmarked) [Example 60, 2-(4-(1-(4-Carbamimidoylphenylamino)-2-(N′-(3-fluoropyridine-4-carbonyl)-hydrazino)-2-oxoethyl)-2-ethoxyphenoxy)-N,N-dimethyl-acetamide trifluoroacetate]	203	0.30
CCOc1cc(C(Nc2ccc(C(=N)N)cc2)C(=O)NNS(=O)(=O)c2ccc(NC(C)=O)cc2)ccc1OC(C)C.O=C(O)C(F)(F)F (centres unmarked) [Example 9, N-(4-(2-(2-(4-Carbamimidoylphenylamino)-2-(3-ethoxy-4-isopropoxyphenyl)acetyl)hydrazinosulfonyl)phenyl)acetamide trifluoroacetate]	316	1.30
